Active and inactive are the calls of the source.
Tests used:
[1] = biological target: T1, Peroxisomal acyl-coenzyme A oxidase 3 (Homo sapiens, UniProt O15254)
T1 sequence (O15254 whole entry): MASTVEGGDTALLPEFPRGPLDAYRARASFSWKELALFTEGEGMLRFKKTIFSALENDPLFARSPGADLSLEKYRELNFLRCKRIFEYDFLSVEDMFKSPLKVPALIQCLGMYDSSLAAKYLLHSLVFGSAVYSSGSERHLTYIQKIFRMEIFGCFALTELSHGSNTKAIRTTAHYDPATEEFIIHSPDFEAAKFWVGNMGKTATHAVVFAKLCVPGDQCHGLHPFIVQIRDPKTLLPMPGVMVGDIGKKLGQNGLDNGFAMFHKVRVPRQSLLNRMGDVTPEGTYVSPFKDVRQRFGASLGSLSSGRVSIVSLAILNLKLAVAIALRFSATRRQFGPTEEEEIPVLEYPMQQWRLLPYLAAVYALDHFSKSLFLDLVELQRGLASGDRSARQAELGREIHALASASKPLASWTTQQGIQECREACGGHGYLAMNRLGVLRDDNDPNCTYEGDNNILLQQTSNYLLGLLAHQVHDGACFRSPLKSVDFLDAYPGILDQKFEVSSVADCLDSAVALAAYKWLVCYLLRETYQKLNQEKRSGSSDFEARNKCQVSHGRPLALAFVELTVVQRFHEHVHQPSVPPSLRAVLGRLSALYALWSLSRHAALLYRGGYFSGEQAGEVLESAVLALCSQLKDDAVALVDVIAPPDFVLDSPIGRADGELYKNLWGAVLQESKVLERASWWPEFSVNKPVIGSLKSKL

[2] = biological target: Receptor-interacting serine/threonine-protein kinase 3 (Homo sapiens, UniProt Q9Y572)
Sequence of Receptor-interacting serine/threonine-protein kinase 3 (Q9Y572 whole entry): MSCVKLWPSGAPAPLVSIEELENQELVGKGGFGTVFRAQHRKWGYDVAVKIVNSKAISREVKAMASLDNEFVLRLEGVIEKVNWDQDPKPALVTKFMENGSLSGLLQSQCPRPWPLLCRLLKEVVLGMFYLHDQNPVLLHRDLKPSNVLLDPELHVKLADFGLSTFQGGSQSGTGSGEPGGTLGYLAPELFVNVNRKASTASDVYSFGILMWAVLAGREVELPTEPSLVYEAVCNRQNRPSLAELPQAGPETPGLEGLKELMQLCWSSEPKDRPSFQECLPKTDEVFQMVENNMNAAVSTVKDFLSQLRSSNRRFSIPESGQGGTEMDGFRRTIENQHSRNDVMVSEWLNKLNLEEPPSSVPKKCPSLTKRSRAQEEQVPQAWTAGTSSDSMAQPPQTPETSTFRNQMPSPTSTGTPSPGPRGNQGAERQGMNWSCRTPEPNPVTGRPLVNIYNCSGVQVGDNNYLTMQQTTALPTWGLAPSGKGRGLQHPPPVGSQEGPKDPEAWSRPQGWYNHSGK

[3] = biological target: Proto-oncogene tyrosine-protein kinase Src (Homo sapiens, UniProt P12931)
Sequence of Proto-oncogene tyrosine-protein kinase Src (P12931 2-536 limits assumed): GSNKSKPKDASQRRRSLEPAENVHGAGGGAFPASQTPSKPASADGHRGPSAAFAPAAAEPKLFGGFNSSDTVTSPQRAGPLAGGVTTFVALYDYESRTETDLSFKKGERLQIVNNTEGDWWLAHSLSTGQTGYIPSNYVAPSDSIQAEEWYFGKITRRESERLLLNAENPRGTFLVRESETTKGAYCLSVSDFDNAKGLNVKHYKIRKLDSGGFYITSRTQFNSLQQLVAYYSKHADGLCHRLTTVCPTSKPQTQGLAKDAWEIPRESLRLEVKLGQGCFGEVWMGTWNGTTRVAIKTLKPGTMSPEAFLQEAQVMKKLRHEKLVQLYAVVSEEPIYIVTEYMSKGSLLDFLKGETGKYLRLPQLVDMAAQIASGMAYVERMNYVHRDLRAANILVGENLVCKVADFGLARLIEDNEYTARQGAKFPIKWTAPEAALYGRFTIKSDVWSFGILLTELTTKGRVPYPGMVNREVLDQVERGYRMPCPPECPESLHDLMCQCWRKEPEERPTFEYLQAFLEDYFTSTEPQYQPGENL

[4] = biological target: ATP-dependent RNA helicase DDX3X (Homo sapiens, UniProt O00571)
Sequence of ATP-dependent RNA helicase DDX3X (O00571 whole entry): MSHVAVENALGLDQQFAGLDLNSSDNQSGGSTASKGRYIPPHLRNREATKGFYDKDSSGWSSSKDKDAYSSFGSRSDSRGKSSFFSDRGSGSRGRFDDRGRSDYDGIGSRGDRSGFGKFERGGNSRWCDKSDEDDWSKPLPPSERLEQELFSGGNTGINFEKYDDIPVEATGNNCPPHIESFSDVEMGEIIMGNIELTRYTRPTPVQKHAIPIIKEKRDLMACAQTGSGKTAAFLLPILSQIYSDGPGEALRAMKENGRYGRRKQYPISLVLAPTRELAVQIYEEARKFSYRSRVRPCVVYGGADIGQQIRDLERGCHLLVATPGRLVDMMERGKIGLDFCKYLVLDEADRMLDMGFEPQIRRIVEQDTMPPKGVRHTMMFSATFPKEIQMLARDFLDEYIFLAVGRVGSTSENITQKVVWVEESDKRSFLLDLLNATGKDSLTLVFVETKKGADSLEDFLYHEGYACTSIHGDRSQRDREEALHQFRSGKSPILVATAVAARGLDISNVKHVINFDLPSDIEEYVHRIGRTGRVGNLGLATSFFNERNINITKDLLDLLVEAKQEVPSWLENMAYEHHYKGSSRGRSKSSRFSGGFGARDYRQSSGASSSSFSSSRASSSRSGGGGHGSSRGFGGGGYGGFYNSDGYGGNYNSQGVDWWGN

Heme oxygenase 2 = biological target: T2, Heme oxygenase 2 (Homo sapiens, UniProt P30519)
T2 sequence (P30519 whole entry): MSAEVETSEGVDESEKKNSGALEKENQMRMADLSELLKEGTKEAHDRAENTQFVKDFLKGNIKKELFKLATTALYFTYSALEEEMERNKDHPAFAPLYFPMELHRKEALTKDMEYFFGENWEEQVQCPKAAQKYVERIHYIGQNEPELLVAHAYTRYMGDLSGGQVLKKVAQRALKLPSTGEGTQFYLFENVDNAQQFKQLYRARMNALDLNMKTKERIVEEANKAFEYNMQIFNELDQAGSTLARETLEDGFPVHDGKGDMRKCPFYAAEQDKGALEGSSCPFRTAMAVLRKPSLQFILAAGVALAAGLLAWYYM

Midasin = Midasin (Homo sapiens, UniProt Q9NU22)
[5] = biological target: Tyrosine-protein kinase JAK1 (Homo sapiens, UniProt P23458)
Sequence of Tyrosine-protein kinase JAK1 (P23458 whole entry): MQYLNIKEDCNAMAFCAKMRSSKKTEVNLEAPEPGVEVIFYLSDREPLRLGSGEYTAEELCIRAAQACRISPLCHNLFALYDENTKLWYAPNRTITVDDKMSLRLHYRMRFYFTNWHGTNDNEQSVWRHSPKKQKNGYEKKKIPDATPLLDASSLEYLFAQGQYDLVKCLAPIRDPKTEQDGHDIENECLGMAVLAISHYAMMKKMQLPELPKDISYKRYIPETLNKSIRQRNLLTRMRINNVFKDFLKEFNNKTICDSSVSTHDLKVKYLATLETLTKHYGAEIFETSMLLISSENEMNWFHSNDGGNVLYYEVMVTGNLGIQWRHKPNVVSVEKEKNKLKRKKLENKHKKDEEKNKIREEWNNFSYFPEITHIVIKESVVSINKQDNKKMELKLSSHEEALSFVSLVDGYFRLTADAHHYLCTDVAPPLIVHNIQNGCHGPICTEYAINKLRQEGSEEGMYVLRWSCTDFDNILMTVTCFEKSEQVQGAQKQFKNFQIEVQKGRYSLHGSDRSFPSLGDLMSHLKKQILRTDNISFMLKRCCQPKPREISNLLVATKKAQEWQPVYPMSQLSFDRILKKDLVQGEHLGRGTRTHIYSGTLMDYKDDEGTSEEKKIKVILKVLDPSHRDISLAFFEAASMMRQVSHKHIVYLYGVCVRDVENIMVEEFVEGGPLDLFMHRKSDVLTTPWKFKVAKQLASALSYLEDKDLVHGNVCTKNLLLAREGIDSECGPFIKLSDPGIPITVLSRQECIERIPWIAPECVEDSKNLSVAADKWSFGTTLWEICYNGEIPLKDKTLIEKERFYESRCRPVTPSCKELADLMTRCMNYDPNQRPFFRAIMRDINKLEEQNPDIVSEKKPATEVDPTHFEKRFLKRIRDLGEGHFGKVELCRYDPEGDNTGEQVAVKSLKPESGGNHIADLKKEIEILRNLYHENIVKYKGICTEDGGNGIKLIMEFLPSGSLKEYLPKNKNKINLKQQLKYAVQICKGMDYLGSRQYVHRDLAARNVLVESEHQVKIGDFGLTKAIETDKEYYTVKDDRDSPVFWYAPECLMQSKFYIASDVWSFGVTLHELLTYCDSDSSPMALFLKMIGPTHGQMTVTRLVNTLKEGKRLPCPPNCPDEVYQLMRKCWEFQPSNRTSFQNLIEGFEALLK

[6] = biological target: T3, Serine/threonine-protein kinase A-Raf (Homo sapiens, UniProt P10398)
T3 sequence (P10398 whole entry): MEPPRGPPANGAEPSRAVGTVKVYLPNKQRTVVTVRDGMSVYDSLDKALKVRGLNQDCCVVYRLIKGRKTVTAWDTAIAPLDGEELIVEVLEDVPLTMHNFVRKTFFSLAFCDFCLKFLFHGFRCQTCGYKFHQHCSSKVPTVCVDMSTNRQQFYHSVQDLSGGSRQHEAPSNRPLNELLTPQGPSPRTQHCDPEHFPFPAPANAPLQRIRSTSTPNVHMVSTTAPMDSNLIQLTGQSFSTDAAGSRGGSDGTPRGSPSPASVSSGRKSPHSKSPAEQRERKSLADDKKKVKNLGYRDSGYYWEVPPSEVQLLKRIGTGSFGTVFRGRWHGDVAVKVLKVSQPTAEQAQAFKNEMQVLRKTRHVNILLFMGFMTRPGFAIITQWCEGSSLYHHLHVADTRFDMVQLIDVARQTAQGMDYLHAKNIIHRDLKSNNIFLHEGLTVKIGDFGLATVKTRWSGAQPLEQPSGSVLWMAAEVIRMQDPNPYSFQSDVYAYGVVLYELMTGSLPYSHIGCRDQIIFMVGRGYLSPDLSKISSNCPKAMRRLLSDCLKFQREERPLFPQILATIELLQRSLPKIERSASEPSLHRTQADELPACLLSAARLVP

[7] = biological target: T4, ATP-dependent RNA helicase DDX42 (Homo sapiens, UniProt Q86XP3)
T4 sequence (Q86XP3 whole entry): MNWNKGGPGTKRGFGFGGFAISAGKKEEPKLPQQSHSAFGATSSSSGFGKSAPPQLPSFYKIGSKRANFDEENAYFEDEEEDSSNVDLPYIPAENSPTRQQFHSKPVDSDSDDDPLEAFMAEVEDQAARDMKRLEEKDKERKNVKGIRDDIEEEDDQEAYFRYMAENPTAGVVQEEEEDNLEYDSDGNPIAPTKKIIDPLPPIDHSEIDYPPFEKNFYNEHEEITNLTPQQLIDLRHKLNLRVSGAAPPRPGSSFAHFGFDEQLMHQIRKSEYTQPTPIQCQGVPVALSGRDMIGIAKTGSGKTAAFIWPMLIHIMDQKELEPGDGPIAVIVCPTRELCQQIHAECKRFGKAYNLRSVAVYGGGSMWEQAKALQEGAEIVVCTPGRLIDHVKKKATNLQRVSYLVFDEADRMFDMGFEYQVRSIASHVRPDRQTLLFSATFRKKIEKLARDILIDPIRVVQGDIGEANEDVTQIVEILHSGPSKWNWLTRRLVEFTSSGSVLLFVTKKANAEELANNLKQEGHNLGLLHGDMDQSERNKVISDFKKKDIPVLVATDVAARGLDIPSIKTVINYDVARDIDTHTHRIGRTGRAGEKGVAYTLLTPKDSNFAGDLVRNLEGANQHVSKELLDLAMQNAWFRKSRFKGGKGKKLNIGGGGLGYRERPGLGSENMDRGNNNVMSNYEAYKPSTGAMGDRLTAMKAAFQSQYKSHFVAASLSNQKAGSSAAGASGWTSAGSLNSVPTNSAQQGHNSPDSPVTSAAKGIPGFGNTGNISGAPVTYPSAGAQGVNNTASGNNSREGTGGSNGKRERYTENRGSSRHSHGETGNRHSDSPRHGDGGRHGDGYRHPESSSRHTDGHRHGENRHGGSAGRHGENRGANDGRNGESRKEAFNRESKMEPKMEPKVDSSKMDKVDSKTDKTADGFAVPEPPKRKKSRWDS

[8] = biological target: MAP/microtubule affinity-regulating kinase 3 (Homo sapiens, UniProt P27448)
Sequence of MAP/microtubule affinity-regulating kinase 3 (P27448 whole entry): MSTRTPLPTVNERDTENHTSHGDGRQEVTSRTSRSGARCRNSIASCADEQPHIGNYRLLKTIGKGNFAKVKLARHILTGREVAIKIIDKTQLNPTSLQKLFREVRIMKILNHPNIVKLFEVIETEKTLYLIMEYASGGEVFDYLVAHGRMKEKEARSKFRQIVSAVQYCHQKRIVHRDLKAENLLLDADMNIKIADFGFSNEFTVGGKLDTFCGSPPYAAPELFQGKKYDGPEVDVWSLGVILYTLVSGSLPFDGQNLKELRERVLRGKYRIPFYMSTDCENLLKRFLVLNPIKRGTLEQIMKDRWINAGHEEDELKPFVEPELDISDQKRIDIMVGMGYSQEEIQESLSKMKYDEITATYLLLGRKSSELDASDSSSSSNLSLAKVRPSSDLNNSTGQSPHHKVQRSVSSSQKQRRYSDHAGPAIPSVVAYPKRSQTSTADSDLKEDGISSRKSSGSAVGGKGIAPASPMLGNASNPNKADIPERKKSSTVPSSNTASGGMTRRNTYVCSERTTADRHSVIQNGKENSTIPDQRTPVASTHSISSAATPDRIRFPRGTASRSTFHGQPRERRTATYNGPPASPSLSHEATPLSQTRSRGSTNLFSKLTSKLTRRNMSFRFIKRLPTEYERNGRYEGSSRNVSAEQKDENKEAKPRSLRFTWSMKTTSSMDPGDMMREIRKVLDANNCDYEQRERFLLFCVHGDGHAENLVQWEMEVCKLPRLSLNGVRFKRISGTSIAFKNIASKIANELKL

[9] = biological target: Fibroblast growth factor receptor 1 (Homo sapiens, UniProt P11362)
Sequence of Fibroblast growth factor receptor 1 (P11362 whole entry): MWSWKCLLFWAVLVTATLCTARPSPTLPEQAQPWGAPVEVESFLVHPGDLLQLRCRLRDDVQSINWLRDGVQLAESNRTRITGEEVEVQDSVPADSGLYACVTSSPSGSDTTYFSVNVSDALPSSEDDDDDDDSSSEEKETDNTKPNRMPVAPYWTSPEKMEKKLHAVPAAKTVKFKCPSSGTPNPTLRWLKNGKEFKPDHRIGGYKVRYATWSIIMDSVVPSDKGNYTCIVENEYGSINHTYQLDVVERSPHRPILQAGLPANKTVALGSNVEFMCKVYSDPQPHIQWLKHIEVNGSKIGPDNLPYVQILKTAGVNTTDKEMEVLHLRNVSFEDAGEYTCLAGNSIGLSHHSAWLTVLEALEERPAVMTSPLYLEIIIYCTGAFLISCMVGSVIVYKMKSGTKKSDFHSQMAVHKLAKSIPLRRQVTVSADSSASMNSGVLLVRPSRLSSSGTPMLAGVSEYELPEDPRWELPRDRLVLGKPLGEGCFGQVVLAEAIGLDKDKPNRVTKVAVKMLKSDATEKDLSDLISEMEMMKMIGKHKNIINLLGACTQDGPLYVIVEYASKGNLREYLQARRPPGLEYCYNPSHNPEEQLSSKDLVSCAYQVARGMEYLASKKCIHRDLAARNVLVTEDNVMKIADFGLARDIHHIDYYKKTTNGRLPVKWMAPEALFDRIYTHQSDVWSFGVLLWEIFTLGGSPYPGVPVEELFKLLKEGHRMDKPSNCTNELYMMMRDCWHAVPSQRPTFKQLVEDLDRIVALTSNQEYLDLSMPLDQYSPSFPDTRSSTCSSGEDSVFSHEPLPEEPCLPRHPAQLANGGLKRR
Also: in the data inactive means no Kd found up to 30 µM.

Row | Kd [1] | Kd [2] | Kd [3] | Kd [4] | Kd (Heme oxygenase 2) | Kd (Midasin) | Kd [5] | Kd [6] | Kd [7] | Kd [8] | Kd [9] | SMILES
1 | > 30 µM (inactive) | 1.17 µM (active) | > 30 µM (inactive) | > 30 µM (inactive) | > 30 µM (inactive) | > 30 µM (inactive) | > 30 µM (inactive) | > 30 µM (inactive) | > 30 µM (inactive) | > 30 µM (inactive) | > 30 µM (inactive) | CNC(=O)CN1CCC(Oc2cc3c(Nc4cccc(Cl)c4F)ncnc3cc2OC)CC1 [SAPITINIB]
2 | > 30 µM (inactive) | > 30 µM (inactive) | > 30 µM (inactive) | > 30 µM (inactive) | > 30 µM (inactive) | > 30 µM (inactive) | > 30 µM (inactive) | > 30 µM (inactive) | > 30 µM (inactive) | > 30 µM (inactive) | > 30 µM (inactive) | N[C@@H]1CCCN(c2c(/C=C3\SC(=O)NC3=O)cccc2-c2ccccc2)C1
3 | > 30 µM (inactive) | > 30 µM (inactive) | > 30 µM (inactive) | > 30 µM (inactive) | > 30 µM (inactive) | > 30 µM (inactive) | > 30 µM (inactive) | > 30 µM (inactive) | > 30 µM (inactive) | > 30 µM (inactive) | > 30 µM (inactive) | CNC(=O)c1ccc(C)c(-n2c(C)cc(OCc3ccc(F)cc3F)c(Br)c2=O)c1 [PH-797804]
4 | > 30 µM (inactive) | 0.506 µM (active) | > 30 µM (inactive) | > 30 µM (inactive) | > 30 µM (inactive) | > 30 µM (inactive) | > 30 µM (inactive) | 2.89 µM (active) | > 30 µM (inactive) | > 30 µM (inactive) | > 30 µM (inactive) | Cc1ccc(NC(=O)c2ccc(CN3CC[C@H](N(C)C)C3)c(C(F)(F)F)c2)cc1Nc1nccc(-c2cncnc2)n1 [BAFETINIB]
5 | > 30 µM (inactive) | > 30 µM (inactive) | > 30 µM (inactive) | > 30 µM (inactive) | > 30 µM (inactive) | > 30 µM (inactive) | > 30 µM (inactive) | > 30 µM (inactive) | > 30 µM (inactive) | > 30 µM (inactive) | > 30 µM (inactive) | Cn1cc(-c2ccc(F)c(C(F)(F)F)c2)nc1C1CCN(c2ncnc3[nH]ncc23)CC1 [LY-2584702]
6 | > 30 µM (inactive) | > 30 µM (inactive) | > 30 µM (inactive) | > 30 µM (inactive) | > 30 µM (inactive) | > 30 µM (inactive) | > 30 µM (inactive) | > 30 µM (inactive) | > 30 µM (inactive) | 1.61 µM (active) | > 30 µM (inactive) | O=C(Nc1ccc(-c2ccnc(Nc3ccc(N4CCOCC4)cc3)n2)cc1)C1CCCN1 (stereo not drawn) [XL-019]
7 | > 30 µM (inactive) | > 30 µM (inactive) | > 30 µM (inactive) | > 30 µM (inactive) | > 30 µM (inactive) | > 30 µM (inactive) | > 30 µM (inactive) | > 30 µM (inactive) | > 30 µM (inactive) | > 30 µM (inactive) | > 30 µM (inactive) | CN1CCC(CNc2ccc3ncc(-c4cccc(OC(F)(F)F)c4)n3n2)CC1 [SGI-1776]
8 | > 30 µM (inactive) | > 30 µM (inactive) | > 30 µM (inactive) | > 30 µM (inactive) | > 30 µM (inactive) | > 30 µM (inactive) | > 30 µM (inactive) | > 30 µM (inactive) | > 30 µM (inactive) | > 30 µM (inactive) | > 30 µM (inactive) | Cc1c(F)cc(C(=O)NC2CC2)cc1-c1ccc(C(=O)NCC(C)(C)C)cn1 [LOSMAPIMOD]
9 | > 30 µM (inactive) | > 30 µM (inactive) | > 30 µM (inactive) | > 30 µM (inactive) | > 30 µM (inactive) | > 30 µM (inactive) | > 30 µM (inactive) | > 30 µM (inactive) | > 30 µM (inactive) | > 30 µM (inactive) | > 30 µM (inactive) | CC[C@@H]1C(=O)N(C)c2cnc(Nc3ccc(C(=O)N[C@H]4CC[C@H](N5CCN(CC6CC6)CC5)CC4)cc3OC)nc2N1C(C)C [VOLASERTIB]
10 | > 30 µM (inactive) | > 30 µM (inactive) | > 30 µM (inactive) | > 30 µM (inactive) | > 30 µM (inactive) | > 30 µM (inactive) | > 30 µM (inactive) | > 30 µM (inactive) | > 30 µM (inactive) | > 30 µM (inactive) | > 30 µM (inactive) | C[C@@H](c1ccc2nccn2c1)n1nnc2ncc(-c3cnn(C)c3)nc21 [SAVOLITINIB]
11 | > 30 µM (inactive) | > 30 µM (inactive) | > 30 µM (inactive) | > 30 µM (inactive) | > 30 µM (inactive) | > 30 µM (inactive) | > 30 µM (inactive) | > 30 µM (inactive) | > 30 µM (inactive) | > 30 µM (inactive) | > 30 µM (inactive) | Cc1cc([C@@H](C)Nc2ccccc2C(=O)O)c2nc(N3CCOCC3)cc(=O)n2c1 [AZD-6482]
12 | > 30 µM (inactive) | > 30 µM (inactive) | > 30 µM (inactive) | > 30 µM (inactive) | > 30 µM (inactive) | > 30 µM (inactive) | > 30 µM (inactive) | > 30 µM (inactive) | > 30 µM (inactive) | > 30 µM (inactive) | > 30 µM (inactive) | CCn1c(=O)c(-c2cc[nH]n2)cc2c(C)nc(N)nc21 [VOXTALISIB]

Row | SMILES | Kd [1] | Kd [2] | Kd [3] | Kd [4] | Kd (Heme oxygenase 2) | Kd (Midasin) | Kd [5] | Kd [6] | Kd [7] | Kd [8] | Kd [9]
13 | O=C(c1ccc(F)c(F)c1Nc1ccc(I)cc1F)N1CC(O)([C@@H]2CCCCN2)C1 [COBIMETINIB] | > 30 µM (inactive) | > 30 µM (inactive) | > 30 µM (inactive) | > 30 µM (inactive) | > 30 µM (inactive) | > 30 µM (inactive) | > 30 µM (inactive) | > 30 µM (inactive) | > 30 µM (inactive) | > 30 µM (inactive) | > 30 µM (inactive)
